The values that follow come from US11384055B2 (BIOMARIN PHARMACEUTICAL INC., priority 2017, dated 2022).

In the assay the target is T1, Human GO (Homo sapiens, UniProt Q9UJM8).
T1 construct: purchased Novus Biologicals NBP1-72412
T1 sequence (Q9UJM8 1-370): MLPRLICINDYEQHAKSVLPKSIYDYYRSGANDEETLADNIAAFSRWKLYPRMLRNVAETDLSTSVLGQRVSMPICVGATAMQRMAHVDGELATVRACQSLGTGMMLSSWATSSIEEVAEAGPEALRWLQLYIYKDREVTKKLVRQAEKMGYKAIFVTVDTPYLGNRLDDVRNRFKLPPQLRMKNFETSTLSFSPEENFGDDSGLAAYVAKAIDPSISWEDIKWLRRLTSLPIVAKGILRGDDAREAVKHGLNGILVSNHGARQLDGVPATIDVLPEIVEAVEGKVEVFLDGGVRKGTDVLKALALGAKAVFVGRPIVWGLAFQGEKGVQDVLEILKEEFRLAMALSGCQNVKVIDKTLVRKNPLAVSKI
Briefly: GO enzymatic assay (coupled fluorescence/HRP assay, glycolate substrate). It is filed as biochemical. The conditions noted are these: Table 4; read-out: Range (range of IC50 values calculated from the enzymatic assays). Put shortly: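 Coupled HRP/fluorescence read-out of glycolate oxidation by human GO in 50 mM potassium phosphate buffer (pH 7). Inhibitors added across a concentration range.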

Broadly, the IC50 is the concentration at which inhibition is half-maximal. With `O=C(O)c1[nH]nnc1S[C@H]1C[C@@H]2CN(c3ccc(Cl)c(Cl)c3)C[C@@H]2C1` [Compound 428, 4-(((3aR,5s,6aS)-2-(3,4-dichlorophenyl)octahydrocyclopenta[c]pyrrol-5-yl)thio)-1H-1,2,3-triazole-5-carboxylic acid], the IC50 is < 100 nM.

With `O=C(O)c1[nH]nnc1OC1CCN(c2cc(OC(F)(F)F)ccc2Cl)CC1` [Compound 429, 4-((1-(2-chloro-5-(trifluoromethoxy)phenyl)piperidin-4-yl)oxy)-1H-1,2,3-triazole-5-carboxylic acid], the IC50 was < 100 nM.

Take `O=C(O)c1[nH]nnc1CSC1CCC2(CCCC2)CC1` [Compound 435, 4-((spiro[4.5]decan-8-ylthio)methyl)-1H-1,2,3-triazole-5-carboxylic acid]: the IC50 is < 100 nM.

As to `N#CC1(c2ccc(OC(F)(F)F)cc2)CCC(Oc2nn[nH]c2C(=O)O)CC1` (centres unmarked) [Compound 437, 4-((4-cyano-4-(4-(trifluoromethoxy)phenyl)cyclohexyl)oxy)-1H-1,2,3-triazole-5-carboxylic acid], the IC50 is < 100 nM.

As for `COC1(c2ccc(OC(F)(F)F)cc2)CC(Oc2nn[nH]c2C(=O)O)C1` (centres unmarked) [Compound 440, 4-(3-methoxy-3-(4-(trifluoromethoxy)phenyl)cyclobutoxy)-1H-1,2,3-triazole-5-carboxylic acid], the IC50 was 100 to 1000 nM.

As for `O=C(O)c1[nH]nnc1S[C@H]1CC[C@@H](c2ccc(N3CCCCC3)c(Cl)c2)CC1` [Compound 442-1, 4-(((cis)-4-(3-chloro-4-(piperidin-1-yl)phenyl)cyclohexyl)thio)-1H-1,2,3-triazole-5-carboxylic acid 2,2,2-trifluoroacetate], the IC50 is < 100 nM.

Consider `O=C(O)c1[nH]nnc1S[C@H]1CC[C@H](c2ccc(N3CCCCC3)c(Cl)c2)CC1` [Compound 442-2, 4-(((trans)-4-(3-chloro-4-(piperidin-1-yl)phenyl)cyclohexyl)thio)-1H-1,2,3-triazole-5-carboxylic acid 2,2,2-trifluoroacetate], for which the IC50 was < 100 nM.

As to `C[C@]1(c2ccc(OC(F)(F)F)cc2)CC[C@H](Oc2nn[nH]c2C(=O)O)CC1` [Compound 443, 4-(((1r,4r)-4-methyl-4-(4-(trifluoromethoxy)phenyl)cyclohexyl)oxy)-1H-1,2,3-triazole-5-carboxylic acid], the IC50 was < 100 nM.

On to `C[C@]1(c2ccc(OC(F)(F)F)cc2)CC[C@@H](Oc2nn[nH]c2C(=O)O)CC1` [Compound 444, 4-(((1s,4s)-4-methyl-4-(4-(trifluoromethoxy)phenyl)cyclohexyl)oxy)-1H-1,2,3-triazole-5-carboxylic acid], for which the IC50 is < 100 nM.

Turning to `O=C(O)c1[nH]nnc1O[C@H]1CC[C@H](c2ccc(OC3CC3)cc2)CC1` [Example 446, 4-(((trans)-4-(4-cyclopropoxyphenyl)cyclohexyl)oxy)-1H-1,2,3-triazole-5-carboxylic acid], the IC50 is < 100 nM.

Consider `O=C(O)c1[nH]nnc1O[C@H]1CC[C@H](c2ccc(F)cc2)CC1` [Example 447, 4-(((trans)-4-(4-fluorophenyl)cyclohexyl)oxy)-1H-1,2,3-triazole-5-carboxylic acid], for which the IC50 was < 100 nM.

Regarding `O=C(O)c1[nH]nnc1Oc1ccc(Cl)c(OC2CCC2)c1` [Example 448, 4-(4-chloro-3-cyclobutoxyphenoxy)-1H-1,2,3-triazole-5-carboxylic acid], the IC50 is < 100 nM.

As to `O=C(O)c1[nH]nnc1OC1CC(c2ccc(OC(F)(F)F)cc2)C1` (centres unmarked) [Example 449, 4-(3-(4-(trifluoromethoxy)phenyl)cyclobutoxy)-1H-1,2,3-triazole-5-carboxylic acid], the IC50 was < 100 nM.

Consider `O=C(O)c1[nH]nnc1Oc1ccc(-c2ccc(-n3cccn3)cc2)cc1` [Example 450, 4-((4′-(1H-pyrazol-1-yl)-[1,1′-biphenyl]-4-yl)oxy)-1H-1,2,3-triazole-5-carboxylic acid 2,2,2-trifluoroacetate], for which the IC50 was < 100 nM.

As for `O=C(O)c1[nH]nnc1N[C@H]1CC[C@H](c2ccc(OC(F)(F)F)cc2)CC1` [Example 451, 4-(((trans)-4-(4-(trifluoromethoxy)phenyl)cyclohexyl)amino)-1H-1,2,3-triazole-5-carboxylic acid], the IC50 is < 100 nM.

Turning to `O=C(O)c1[nH]nnc1N[C@H]1CC[C@@H](c2ccc(OC(F)(F)F)cc2)CC1` [Example 452, 4-(((cis)-4-(4-(trifluoromethoxy)phenyl)cyclohexyl)amino)-1H-1,2,3-triazole-5-carboxylic acid], the half-inhibitory concentration (IC50) is < 100 nM.

As for `O=C(O)c1[nH]nnc1OC1CCC(O)(c2ccc(OC(F)(F)F)cc2)CC1` (centres unmarked) [Example 453, 4-((4-hydroxy-4-(4-(trifluoromethoxy)phenyl)cyclohexyl)oxy)-1H-1,2,3-triazole-5-carboxylic acid], the IC50 is 100 to 1000 nM.

Consider `O=C(O)c1[nH]nnc1OC1CC=C(c2ccc(OC(F)(F)F)cc2)CC1` (centres unmarked) [Example 454, 4-((4′-(trifluoromethoxy)-2,3,4,5-tetrahydro-[1,1′-biphenyl]-4-yl)oxy)-1H-1,2,3-triazole-5-carboxylic acid], for which the IC50 is < 100 nM.

For `O=C(O)c1[nH]nnc1OC1C[C@@H]2CC(c3ccc(OC(F)(F)F)cc3)C[C@@H]2C1` (stereo partly drawn) [Example 455, 4-(((cis-3a,6a)-5-(4-(trifluoromethoxy)phenyl)octahydropentalen-2-yl)oxy)-1H-1,2,3-triazole-5-carboxylic acid], the IC50 is < 100 nM.

In the case of `O=C(O)c1[nH]nnc1CO[C@H]1CC[C@H](c2ccc(OC(F)(F)F)cc2)CC1` [Example 456, 4-((((trans)-4-(4-(trifluoromethoxy)phenyl)cyclohexyl)oxy)methyl)-1H-1,2,3-triazole-5-carboxylic acid], the IC50 was 100 to 1000 nM.

For `NS(=O)(=O)c1ccc([C@H]2CC[C@H](Oc3nn[nH]c3C(=O)O)CC2)cc1` [Example 457, 4-(((trans)-4-(4-sulfamoylphenyl)cyclohexyl)oxy)-1H-1,2,3-triazole-5-carboxylic acid], the IC50 was < 100 nM.

With `O=C(O)c1[nH]nnc1S[C@H]1CC[C@H](c2ccc(-n3cccn3)cc2)CC1` [Example 459, 4-(((trans)-4-(4-(1H-pyrazol-1-yl)phenyl)cyclohexyl)thio)-1H-1,2,3-triazole-5-carboxylic acid 2,2,2-trifluoroacetate], the IC50 was < 100 nM.

In the case of `O=C(O)c1[nH]nnc1O[C@H]1CC[C@H](c2ccc(OCC3CCCCC3)cc2)CC1` [Example 460, 4-(((trans)-4-(4-(cyclohexylmethoxy)phenyl)cyclohexyl)oxy)-1H-1,2,3-triazole-5-carboxylic acid], the IC50 was < 100 nM.

With `O=C(O)c1[nH]nnc1SC1C[C@@H]2CC(c3ccc(OC(F)(F)F)cc3)C[C@@H]2C1` (stereo partly drawn) [Example 461, 4-(((cis-3a,6a)-5-(4-(trifluoromethoxy)phenyl)octahydropentalen-2-yl)thio)-1H-1,2,3-triazole-5-carboxylic acid], the IC50 is < 100 nM.

For the molecule `O=C(O)c1[nH]nnc1O[C@H]1CC[C@H](c2ccc(OCCC3CCCCC3)cc2)CC1` [Example 462, 4-(((trans)-4-(4-(2-cyclohexylethoxy)phenyl)cyclohexyl)oxy)-1H-1,2,3-triazole-5-carboxylic acid], the IC50 is < 100 nM.

`O=C(O)c1[nH]nnc1O[C@H]1CC[C@H](c2ccc(OCCCO)cc2)CC1` [Example 463, 4-(((trans)-4-(4-(3-hydroxypropoxy)phenyl)cyclohexyl)oxy)-1H-1,2,3-triazole-5-carboxylic acid]: the IC50 is < 100 nM.

`CC(C)c1cc(-c2ccc([C@H]3CC[C@H](Oc4nn[nH]c4C(=O)O)CC3)cc2)[nH]n1` [Example 464, 4-(((trans)-4-(4-(3-isopropyl-1H-pyrazol-5-yl)phenyl)cyclohexyl)oxy)-1H-1,2,3-triazole-5-carboxylic acid 2,2,2-trifluoroacetate]: the IC50 was < 100 nM.

As for `CN(c1nn[nH]c1C(=O)O)[C@H]1CC[C@@H](c2ccc(OC(F)(F)F)cc2)CC1` [Example 465, 4-(methyl((cis)-4-(4-(trifluoromethoxy)phenyl)cyclohexyl)amino)-1H-1,2,3-triazole-5-carboxylic acid], the IC50 was 100 to 1000 nM.

As to `O=C(O)c1[nH]nnc1O[C@H]1CC[C@H](c2ccc(-c3ccn[nH]3)c(CO)c2)CC1` [Example 466, 4-(((trans)-4-(3-(hydroxymethyl)-4-(1H-pyrazol-5-yl)phenyl)cyclohexyl)oxy)-1H-1,2,3-triazole-5-carboxylic acid], the IC50 is < 100 nM.

Take `O=C(O)c1[nH]nnc1O[C@H]1CC[C@@H](c2ccc(-c3ccn[nH]3)c(CO)c2)CC1` [Example 467, 4-(((cis)-4-(3-(hydroxymethyl)-4-(1H-pyrazol-5-yl)phenyl)cyclohexyl)oxy)-1H-1,2,3-triazole-5-carboxylic acid 2,2,2-trifluoroacetate]: the IC50 was < 100 nM.

For the molecule `CN1CCN(c2ccc([C@H]3CC[C@H](Oc4nn[nH]c4C(=O)O)CC3)cc2)CC1` [Example 468, 4-(((trans)-4-(4-(4-methylpiperazin-1-yl)phenyl)cyclohexyl)oxy)-1H-1,2,3-triazole-5-carboxylic acid 2,2,2-trifluoroacetate], the IC50 is < 100 nM.

Take `CC(C)(O)Cn1ccc(-c2ccc([C@H]3CC[C@H](Oc4nn[nH]c4C(=O)O)CC3)cc2)n1` [Example 469, 4-(((trans)-4-(4-(1-(2-hydroxy-2-methylpropyl)-1H-pyrazol-3-yl)phenyl)cyclohexyl)oxy)-1H-1,2,3-triazole-5-carboxylic acid 2,2,2-trifluoroacetate]: the IC50 was < 100 nM.
